How the values were obtained:
MRSA strains = assay: MIC by agar dilution or microbroth dilution method (NCCLS); assay type: cell-based, Staph. aureus
Method: (§1) Bacterial isolates were obtained from human infections. The isolates were maintained frozen in a liquid nitrogen freezer and plated on Trypticase Soy Agar (TSA) plates supplemented with 5% sheep blood. The quality control strain Staph. aureus 29213 was originally acquired from the American Type Culture Collection (Rockville, Md.).
(§2) MICs were determined by an agar dilution method or microbroth dilution method recommended by NCCLS. Synergy was assessed by agar dilution checker-board method. Minimal inhibitory concentrations (MICS) for each separate drug were determined. The fractional inhibitory concentration (FIC) values were calculated by the MIC of Drug A (e.g., sulbactam/ampicillin) and Drug B (e.g., linezolid or arbekacin) in combination/MIC of Drug A or B alone. The FIC index was determined according to the following formula: [formula]

Staph. aureus 29213 = assay: MIC, quality control strain; assay type: cell-based
Method: as §1, §2

MIC Values (MRSA strains; strain 85/2082): 64 µg/mL
MIC Values (MRSA strains; strain HIP 6297): 64 µg/mL
MIC Values (MRSA strains; strain JSCC 563): 2 µg/mL
MIC Values (MRSA strains; strain JSCC 581 (lacks the mecA gene)): 1 µg/mL
MIC Values (MRSA strains; strain JSCC 590 (lacks the mecA gene)): 1 µg/mL
MIC Values (MRSA strains; strain JSCC 601): 64 µg/mL
MIC Values (MRSA strains; strain N315): 16 µg/mL
MIC Values (Staph. aureus 29213; strain ATCC 29213, control sample (Ex. 26)): 0.25 µg/mL
MIC Values (Staph. aureus 29213; strain ATCC29213, control sample (Ex. 37)): 0.25 µg/mL
Structure (SMILES): Cc1onc(-c2ccccc2)c1C(=O)N[C@@H]1C(=O)N2[C@@H]1SC(C)(C)[C@@H]2C(=O)O [MPIPC, oxacillin]

Source: US6544991B2, “Compositions and methods for treating bacterial infections” (priority 2000, dated 2003)
